According to publication PMC6385358, “Discovery of ((1,2,4-oxadiazol-5-yl)pyrrolidin-3-yl)ureidyl derivatives as selective non-steroidal agonists of the G-protein coupled bile acid receptor-1” (Scientific Reports, 2019):

Columns and labels:
[1] = molecular target: T1, PXR (Homo sapiens, UniProt O75469); assay: Luciferase reporter specificity assay versus PXR on HepG2 cells; format: cell-based; details: 10 μM
T1 construct: host or cells: HepG2
T1 sequence (O75469 1-434): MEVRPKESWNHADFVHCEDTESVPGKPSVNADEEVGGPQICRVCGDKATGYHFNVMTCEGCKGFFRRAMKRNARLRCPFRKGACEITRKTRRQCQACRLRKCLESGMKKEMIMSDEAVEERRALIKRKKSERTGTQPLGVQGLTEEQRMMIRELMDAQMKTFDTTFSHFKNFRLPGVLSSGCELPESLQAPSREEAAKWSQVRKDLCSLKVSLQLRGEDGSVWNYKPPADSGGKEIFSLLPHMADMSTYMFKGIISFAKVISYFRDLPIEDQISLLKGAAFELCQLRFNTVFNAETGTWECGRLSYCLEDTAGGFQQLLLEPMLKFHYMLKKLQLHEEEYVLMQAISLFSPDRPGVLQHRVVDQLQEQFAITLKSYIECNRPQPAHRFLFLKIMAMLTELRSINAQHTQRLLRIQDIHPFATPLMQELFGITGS
Method: (§1) The activity of compounds 1–14 on GPBAR1 was evaluated in a luciferase reporter assay using HEK-293T cells transfected with GPBAR1. The efficacy of tested compounds (Table 1) was measured using taurolithocholic acid (TLCA) as GPBAR1 reference compound[10],[11]. Each compound was tested at the concentration of 10 μM and transactivation activity of TLCA on a cAMP responsive element (CRE) (i.e. TGR5/GPBAR1) was considered equal to 100%. […] Thus, 9 and 10 (Table 1) turned out to be the most promising derivatives considering their low EC50 values and high activity efficacy. To further characterize the pharmacological properties of these compounds, we expanded their in vitro profile to common off-targets for bile acid receptor ligands.
(§2) Figure 3 (A) Dose response curves of compounds 9 and 10 (concentrations ranging from 1 to 50 µM) in luciferase reporter assay. (B) Real-time PCR analysis of mRNA expression of Pro-glucagon in GLUTag cells treated with compounds 9 and 10 at 10 μM, and TLCA used as a positive control (10 μM). Values are normalized to GAPDH and are expressed relative to those of not treated cells (NT) which are arbitrarily settled to 1. The relative mRNA expression is expressed as 2^(−ΔΔCt). […]
(§3) The specificity of compounds 9 and 10 versus PPARα, PPARγ, LXRα, LXRβ, FXR and PXR was determined in luciferase reporter gene assays as previously reported[29],[31].

[2] = molecular target: T2, LXRα (Homo sapiens, UniProt Q13133); assay: Luciferase reporter specificity assay versus LXRα on HepG2 cells; format: cell-based; details: 10 μM
T2 construct: host or cells: HepG2
T2 sequence (Q13133 1-447): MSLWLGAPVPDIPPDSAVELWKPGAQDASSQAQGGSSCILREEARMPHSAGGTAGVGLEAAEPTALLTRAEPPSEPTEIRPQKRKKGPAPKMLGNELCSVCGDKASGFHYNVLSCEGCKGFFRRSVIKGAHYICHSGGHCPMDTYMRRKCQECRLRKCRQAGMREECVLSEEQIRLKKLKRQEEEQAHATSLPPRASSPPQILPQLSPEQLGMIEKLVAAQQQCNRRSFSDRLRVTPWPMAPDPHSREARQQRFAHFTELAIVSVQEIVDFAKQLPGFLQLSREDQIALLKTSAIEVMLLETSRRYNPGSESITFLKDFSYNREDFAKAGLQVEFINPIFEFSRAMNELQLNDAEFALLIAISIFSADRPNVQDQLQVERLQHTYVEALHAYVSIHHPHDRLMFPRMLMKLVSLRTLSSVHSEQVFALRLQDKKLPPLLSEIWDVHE
Method: as §1, §2, §3

[3] = molecular target: T3, PPARγ (Homo sapiens, UniProt P37231); assay: Luciferase reporter specificity assay versus PPARγ on HepG2 cells; format: cell-based; details: 10 μM
T3 construct: host or cells: HepG2
T3 sequence (P37231 1-505): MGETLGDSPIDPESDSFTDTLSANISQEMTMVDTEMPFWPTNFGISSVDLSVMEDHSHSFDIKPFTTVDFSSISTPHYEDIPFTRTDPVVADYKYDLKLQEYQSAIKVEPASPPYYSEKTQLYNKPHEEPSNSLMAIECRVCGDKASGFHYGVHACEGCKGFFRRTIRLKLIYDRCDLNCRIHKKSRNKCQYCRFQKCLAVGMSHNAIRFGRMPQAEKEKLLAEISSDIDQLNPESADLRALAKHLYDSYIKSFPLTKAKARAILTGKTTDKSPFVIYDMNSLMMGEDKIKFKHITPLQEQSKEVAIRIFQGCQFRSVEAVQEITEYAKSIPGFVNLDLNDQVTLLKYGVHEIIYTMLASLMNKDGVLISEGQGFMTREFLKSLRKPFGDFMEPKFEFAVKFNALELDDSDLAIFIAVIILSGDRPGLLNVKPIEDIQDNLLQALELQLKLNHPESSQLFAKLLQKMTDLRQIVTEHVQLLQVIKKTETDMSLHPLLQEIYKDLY
Method: as §1, §2, §3

[4] = LogD measurement (octanol/PBS pH 7.4); format: physicochemical; details: octanol/PBS (1/1)
Method: Chromatography was performed using a HPLC–MS system Q-ToF Premiere instrument (Waters, Co.) equipped with an ESI source and Waters pump systems. The mixture was separated on a Luna 5 µm C8(2) 100 °A 150 × 2 mm from Phenomenex. The mobile phase consisted of 0.2% formic acid (FA) in water as solvent A and 0.2% FA in acetonitrile as solvent B at a flow rate of 200 μL/min. The gradient was as follows: 0–2 min (75% A and 25% B), 2–20 min (5% A and 95% B), 20–30 min (75% A and 25% B). The detection of analytes was achieved by ESI in the positive mode with the appropriate MRM transition or by UV system at 220 nm.
Ten μL of a 10 mM solution in DMSO of the compound was diluted in 490 μL of a 1/1 octanol/PBS mixture at pH 7.4. The mixture was gently shaken for 2 h at room temperature. Ten microliters of each phase was diluted in 490 μL of MeOH and analyzed by LC-MS/MS. Each compound was tested in triplicate. Log D was determined as the logarithm of the ratio of concentration of product in octanol and PBS, determined by mass signals.

SMILES: O=C(Nc1ccc(Cl)cc1)N[C@@H]1CN[C@H](c2nc(-c3ccccc3)no2)C1 [Compound 9]
- PXR transactivation [1]: unable to induce
- LXRα transactivation [2]: unable to induce
- PPARγ transactivation [3]: unable to induce
- logD at 2 h [4]: 1.47

SMILES: O=C(NC1CCCCC1)N[C@@H]1CN[C@H](c2nc(-c3ccccc3)no2)C1 [Compound 10]
- PXR transactivation [1]: unable to induce
- LXRα transactivation [2]: unable to induce
- PPARγ transactivation [3]: unable to induce
- logD at 2 h [4]: 1.25
